According to patent publication US20020160968A1, “Inhibitors of cellular niacinamide mononucleotide formation and their use in cancer therapy” (Klinge Pharma GmbH, priority 1999, published 2002):

Legend:
HepG2 cells = experiment: Cell growth under high-density conditions (SRB assay), delayed cell death (DCD); format: cell-based, human; settings: Homo sapiens, high density HepG2 cultures
[1] = target: T1, niacinamide phosphoribosyltransferase (NAPRT, EC 2.4.2.12) (Homo sapiens, UniProt P43490); experiment: Niacinamide phosphoribosyltransferase (NAPRT) assay, protamine-treated cytoplasmic fraction of K-562 cells; format: biochemical; settings: for NAM: niacinamide mononucleotide formed, controls 79.1 and 71.8; for NA: niacinamide remaining, controls 389.7 and 397.0; for NA [%] / NAM [%]: portion of total radioactivity
T1 construct: protamine-treated cytoplasmic fraction of K-562 cells as the enzyme source; endogenous in cells; host or cells: K-562 (ATCC CCL 243), freeze-thaw lysate, 23,000 x g supernatant treated with protamine sulfate
Description: The effect of the compounds on the enzyme niacinamide phosphoribosyltransferase (NAPRT, EC 2.4.2.12) was investigated using for example protamine-treated cytoplasmic fraction of K-562 cells as the enzyme source according to the NAPRT assay described in the experimental part below. The investigated compounds were used in concentrations of 10 μM, except for K22387 and K22133 where the concentration was 1 μM.
The assay is based on the amount of radioactive incorporation from ^14C-labelled niacinamide into niacinamide mononucleotide (NAM). NAM is subsequently separated from niacinamide (NA) by thin-layer chromatography and its quantity is determined by autoradiography.
Niacinamide Phosphoribosyltransferase (NAPRT) Assay
The human cell line K-562 (chronic myelogenous leukaemia) is obtained from the American Type Culture Collection (ATCC CCL 243), Rockville, Md., USA. The K-562 cells are cultured in RPMI (Sigma, Deisenhofen, Germany, Product No.: R6504) containing 10% foetal calf serum (PAN Systems GmbH, Aidenbach, Germany), 2.2 g/l NaHCO3 (Merck, Darmstadt, Germany), 50,000 IU/l penicillin and 50 mg/l streptomycin (Sigma).
The K-562 cells are grown in RPMI supplemented with 10% FCS at 37° C. and 100% humidity in a 5% CO2 atmosphere up to a density of 2×10^6 cells per ml. Under these conditions, the cells grow logarithmically with a generation time of 24 hours. The cells are harvested by aspiration and centrifugation (250×g, 10 min, RT). Thereafter, the cells are washed at least 3 times by repeated centrifugation (250×g, 10 min, RT) and resuspension in CMF-PBS. After counting the cell suspension in a haematocytometer, the cells are spun into a tight pellet (390×g, […], RT) and the supernatant is carefully drawn off with a Pasteur pipette. The cells are then vortexed into suspension in sufficient lysis buffer to give a final concentration of 3×10^7 cells per ml. The suspension is frozen at −80° C. for at least one day and thawed slowly at room temperature to break up the cells. The breakage is usually greater than 95%, as determined by trypan blue exclusion. Following centrifugation at 23,000×g for 90 min at 0° C., the clarified supernatant is recovered on ice and 70 μl of 1% protamine sulfate is added per ml of supernatant. After 15 min on ice, the cloudy suspension is centrifuged a further 30 min at 23,000×g and 0° C. The final supernatant is stored in small aliquots at […] This supernatant contains about 950 to 1440 μg protein per ml. 120 to 140 μg protein per sample is used in the NAPRT assay (total assay volume: 0.5 ml).
The niacinamide phosphoribosyltransferase activity is determined in a reaction solution of 0.5 ml consisting of 5 mM MgCl2, 2 mM ATP, 0.5 mM PRPP, and [^14C]niacinamide (10^−5 M to 10^−7 M) in 50 mM Tris buffer pH 8.8 (final concentrations in the assay). The reaction is started by adding 100 to 120 μl cell extract. After incubation for 1 hour at 37° C., the enzyme reaction is stopped by adding cold niacinamide (50 μl of a 100 mM niacinamide solution per 0.5 ml reaction mixture) and by heating on a heating block (2 min, 105° C.). The precipitate is removed by centrifugation (2,500×g, 10 min, 4° C.) and the supernatant is collected into a […] polypropylene vial with screw cap and stored at −20° C. until further analysis. A 10 μl aliquot is taken from the supernatant to determine the total amount of radioactivity.
The ^14C-labelled components of the reaction mixture are separated and identified using thin-layer chromatography (TLC). 5 to 7.5 μl of each sample is transferred to a cellulose TLC foil using an automated sample applicator. The cellulose foil is developed using 1 M NH4 acetate:ethanol (3:7) as solvent. The chromatogram is run with added non-radioactive standards of NAD, NADP, NAM and niacinamide, and the spots were identified by UV absorption (RF values see Table 7). For autoradiography, the chromatogram is exposed to an imaging plate BAS-IIIs in a hypercassette for at least two days. […]

Hep G2 cells = experiment: Nicotinamide Reversibility Assay / cell growth inhibition of Hep G2 cells (SRB, six days); format: cell-based, human; settings: Homo sapiens, HepG2, 144 h; Hep G2; six days of compound incubation; SRB; read-out: Cell growth inhibition IC50-values [μM] Hep G2
Description: Nicotinamide Reversibility Assay
Hep G2 cells derived from a human liver carcinoma were plated at a density of 20,000 cells/ml in 12-well plastic dishes. Cultivation occurred in Richters IMEM-ZO nutrient medium with 5% fetal calf serum (FCS) in a tissue culture incubator with a gas mixture of 5% CO2 and 95% air at a temperature of 37° C. One day after plating, the culture medium was aspirated from the cells and replaced by fresh medium which contained the respective concentrations of the test compounds and where applicable of the nicotinamide. For the individual concentrations and the controls without test compounds, three-fold batches were done for each. Three days after the beginning of treatment, the medium was again renewed with the test compounds and where applicable the nicotinamide. After six days of compound incubation, the test was ended and the protein amount in the individual wells was determined with the sulforhodamin-B-method (according. to P. Skehan et al.: New Colorimetric Cytotoxicity Assay for Anticancer-Drug Screening. J. Natl. Cancer Inst. 82: 1107-1112, 1990). The IC50-values were taken from the dose-response curves and given as a comparative measurement for the activity of the test compounds.

[2] = minimum concentration which, despite initial growth, induced cell death below the number of initially seeded cells, Table 2
[3] = compound 10 μM, controls 16.88 and 15.32
[4] = compound 10 μM, controls 83.12 and 84.68

T1 sequence (P43490 whole entry): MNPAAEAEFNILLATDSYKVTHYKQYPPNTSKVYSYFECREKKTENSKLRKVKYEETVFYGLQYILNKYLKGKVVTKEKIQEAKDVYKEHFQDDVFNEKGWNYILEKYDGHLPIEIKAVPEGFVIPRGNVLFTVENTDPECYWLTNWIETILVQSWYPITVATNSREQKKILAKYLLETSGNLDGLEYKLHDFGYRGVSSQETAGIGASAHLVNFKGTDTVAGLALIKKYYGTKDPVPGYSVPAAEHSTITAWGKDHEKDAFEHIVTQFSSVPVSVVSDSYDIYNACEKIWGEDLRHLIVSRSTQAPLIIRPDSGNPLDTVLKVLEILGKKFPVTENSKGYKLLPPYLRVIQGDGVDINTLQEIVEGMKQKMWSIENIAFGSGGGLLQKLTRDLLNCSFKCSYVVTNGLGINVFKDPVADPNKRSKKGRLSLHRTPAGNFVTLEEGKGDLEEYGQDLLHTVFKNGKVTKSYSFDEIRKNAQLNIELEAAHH

Row | NAM ([1]; compound 1 μM) [pmol/h] | NA ([1]; compound 1 μM) [pmol/h] | NA [%] ([1]; compound 1 μM) | NAM [%] ([1]; compound 1 μM) | NAM ([1]; compound 10 μM) [pmol/h] | NA ([1]; compound 10 μM) [pmol/h] | NAM [%] [1, 3] [%] | NA [%] [1, 4] [%] | SMILES | minimal effective concentration (HepG2 cells; Table 5) [µM] | minimal effective concentration (HepG2 cells; [2]) [µM] | IC50 (Hep G2 cells) [µM]
1 | 0.0 | 468.8 | 100.00 | 0.00 |  |  |  |  | O=C(/C=C/c1cccnc1)NCCCCCCCC(c1ccccc1)c1ccccc1 [Compound K22133, N-(8,8-diphenyl-octyl)-3-pyrid-3-yl-acrylamide] | 0.03 | 0.03 | 0.02
2 |  |  |  |  | 0.0 | 468.8 | 0.00 | 100.00 | O=C(CCc1cccnc1)NCCCCC1CCN(CCCCC2CCN(C(c3ccccc3)c3ccccc3)CC2)CC1 [Compound K22316, N-(4-(1-[4-{1-benzhydryl-piperidine-4-yl)-butyl]-piperidine-4-yl}-butyl)-3-pyridine-3-yl-propanoic acid amide] | 1 | 1 | 0.9
3 |  |  |  |  | 0.0 | 468.8 | 0.00 | 100.00 | O=C(NCCCCCCNC(=O)NCc1cccnc1)NCCC(c1ccccc1)c1ccccc1 [Compound K22158, 1-(3,3-diphenylpropyl)-3-[6-(3-pyridine-3-yl-methylureido)-hexyl]-urea] | 1 | 1 | 0.1
